“Also recorded” adds a separate entry of the source.
Tests used:
[1] = system: tamoxifen-resistant MCF-7 breast cancer cells; test: Proliferation in tamoxifen-resistant MCF-7 breast cancer cells; format: cell-based; settings: no difference in AR expression levels, FIG. 2
ER = test: E2-induced ER chromatin binding / ER recruitment to E2-dependent promoters; format: cell-based; settings: FIG. 3
[2] = system: human prostate cancer cell lines; settings: variety of human prostate cancer cell lines; cited from earlier work
[3] = system: prostate cancer xenograft; settings: prostate cancer xenograft model, preclinical studies; cited from earlier work
[4] = target: T1, β-catenin interaction with AR (Homo sapiens, UniProt P10275); test: β-catenin interaction with AR; settings: MJC13 targeting to the AR BF3 surface; prostate cancer cells
T1 sequence (P10275 1-920): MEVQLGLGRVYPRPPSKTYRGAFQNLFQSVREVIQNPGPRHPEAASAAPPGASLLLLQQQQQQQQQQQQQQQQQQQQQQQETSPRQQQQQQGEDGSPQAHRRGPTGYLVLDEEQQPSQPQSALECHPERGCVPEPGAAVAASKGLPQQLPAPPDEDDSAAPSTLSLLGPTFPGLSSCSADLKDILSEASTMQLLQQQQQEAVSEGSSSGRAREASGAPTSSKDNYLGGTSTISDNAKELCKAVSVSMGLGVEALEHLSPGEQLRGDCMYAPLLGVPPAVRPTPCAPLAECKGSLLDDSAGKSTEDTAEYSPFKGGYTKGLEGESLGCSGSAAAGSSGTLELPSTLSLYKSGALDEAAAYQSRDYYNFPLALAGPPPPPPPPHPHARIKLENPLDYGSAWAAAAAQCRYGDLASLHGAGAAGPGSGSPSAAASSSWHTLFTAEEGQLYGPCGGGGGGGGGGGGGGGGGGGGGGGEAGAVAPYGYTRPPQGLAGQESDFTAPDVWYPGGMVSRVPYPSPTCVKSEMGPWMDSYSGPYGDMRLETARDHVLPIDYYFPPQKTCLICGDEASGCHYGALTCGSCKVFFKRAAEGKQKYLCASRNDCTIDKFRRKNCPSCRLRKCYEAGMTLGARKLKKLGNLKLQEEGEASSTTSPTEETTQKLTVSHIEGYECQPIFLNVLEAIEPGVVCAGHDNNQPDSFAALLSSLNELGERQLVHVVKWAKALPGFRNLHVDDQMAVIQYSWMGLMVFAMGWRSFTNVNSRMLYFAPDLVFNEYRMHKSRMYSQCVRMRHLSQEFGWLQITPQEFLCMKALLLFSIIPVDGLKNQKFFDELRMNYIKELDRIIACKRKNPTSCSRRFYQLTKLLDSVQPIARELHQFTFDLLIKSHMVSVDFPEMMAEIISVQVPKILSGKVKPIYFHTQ

AR [5] = settings: binding AR BF3 surface; FKBP52-receptor complex prevented from dissociating; cited from earlier work
AR [6] = settings: variety of human prostate cancer cell lines; cited from earlier work
[7] = system: MCF-7 breast cancer cells; test: E2-induced proliferation in MCF-7 breast cancer cells; format: cell-based; settings: FIG. 1

In the case of `O=C(Nc1cccc(Cl)c1Cl)C1CCCCC1` [MJC13], the cell proliferation [1] is listed as “effectively inhibits cell proliferation”, the “E2-induced ER chromatin binding” value (ER) is listed as “significantly decreases E2-induced ER chromatin binding; also recorded: affects ER recruitment to E2-dependent promoters” and the “AR-dependent cancer cell proliferation” value [2] is listed as “effectively block”. For the same molecule, the tumor growth [3] was “impressive effects on tumor growth”, the “β-catenin interaction with AR” value [4] was “abrogates β-catenin interaction with AR” and the AR cellular localisation (AR [5]) was “retention of AR in the cytoplasm”. The AR signaling (AR [6]) was “effectively block AR signaling” and the E2-induced proliferation [7] was “inhibits E2-induced proliferation; also recorded: effective inhibitor of E2-induced BC cell proliferation”.

— patent US10434075B2, “FKBP52 specific androgen receptor inhibitor, MJC13, for use in treating breast cancer” (THE BOARD OF REGENTS OF THE UNIVERSITY OF TEXAS SYSTEM, priority 2016, dated 2019)
